In ChEMBL document CHEMBL1201862, “PubChem BioAssay data set” (2004):
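Grown in 96-well plates, cells were treated for 48 hours with each compound at five concentrations. Insufficient inhibition: endpoint recorded as highest concentration tested. GI50 is the concentration that inhibits growth by half.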 Activity calls are given as the source filed them. No stated cut-off is given here; in the data, active = GI50 up to about 1.1 µM and inactive = higher.

Tests used:
Assay in all cases: growth of human tumour cells (NCI), 48 h
[1] = tested on: MOLT-4
[2] = tested on: HT-29
[3] = tested on: MDA-MB-231
[4] = tested on: SK-MEL-5
[5] = tested on: NCI/ADR-RES
[6] = tested on: COLO 205
[7] = tested on: EKVX
[8] = tested on: SF-295
[9] = tested on: OVCAR-5
[10] = tested on: SR
[11] = tested on: HOP-62
[12] = tested on: HCT-15
[13] = tested on: K562
[14] = tested on: SNB-19
[15] = tested on: U-251
[16] = tested on: CAKI-1
[17] = tested on: T47D
[18] = tested on: A549
[19] = tested on: SK-MEL-2
[20] = tested on: NCI-H522

With `C=CCC1(O)CC(n2cc(C)c(=O)[nH]c2=O)OC1CO[Si](C)(C)C(C)(C)C` (stereo not given) as the molecule, how does the GI50 [1] read?
Its GI50 is 57.3 µM (inactive).

And the GI50 [2]?
The GI50 was 40.9 µM (inactive).

What about the GI50 [3] of the same molecule?
Its GI50 is 64.6 µM (inactive).

And the GI50 [4]?
The GI50 was 34.4 µM (inactive).

What about the GI50 [5] of the same molecule?
Its GI50 is 43.1 µM (inactive).

What about the GI50 [6] of the same molecule?
The GI50 was 21.6 µM (inactive).

And the GI50 [7]?
Its GI50 is 36.7 µM (inactive).

What about the GI50 [8] of the same molecule?
The GI50 was 42.9 µM (inactive).

And the GI50 [9]?
The GI50 was 61.9 µM (inactive).

And the GI50 [10]?
The GI50 was 45 µM (inactive).

What about the GI50 [11] of the same molecule?
The GI50 was > 100 µM (inactive).

What about the GI50 [12] of the same molecule?
The GI50 was 44.4 µM.

And the GI50 [13]?
The GI50 was 61.4 µM (inactive).

And the GI50 [14]?
Its GI50 is > 100 µM (inactive).

What about the GI50 [15] of the same molecule?
The GI50 was 75.3 µM (inactive).

And the GI50 [16]?
Its GI50 is 54.6 µM (inactive).

What about the GI50 [17] of the same molecule?
Its GI50 is 55.2 µM (inactive).

What about the GI50 [18] of the same molecule?
Its GI50 is 35.5 µM (inactive).

What about the GI50 [19] of the same molecule?
Its GI50 is 22.3 µM (inactive).

What does the source list for `O=C1NC(N2CCOCC2)=N/C1=C\c1ccccc1`?
GI50 [1]: > 100 µM (inactive); GI50 [2]: > 100 µM (inactive); GI50 [3]: > 100 µM (inactive); GI50 [4]: > 100 µM (inactive); GI50 [5]: > 100 µM (inactive); GI50 [6]: > 100 µM (inactive); GI50 [20]: > 100 µM (inactive); GI50 [7]: > 100 µM (inactive); GI50 [8]: > 100 µM (inactive); GI50 [9]: > 100 µM (inactive); GI50 [10]: > 100 µM (inactive); GI50 [11]: > 100 µM (inactive); GI50 [12]: > 100 µM; GI50 [14]: > 100 µM (inactive); GI50 [15]: > 100 µM (inactive); GI50 [16]: > 100 µM (inactive); GI50 [17]: > 100 µM (inactive); GI50 [18]: > 100 µM (inactive); GI50 [19]: > 100 µM (inactive)

For `CC(=O)OCc1cc2c(s1)C(=O)c1sccc1C2=O`, which GI50 [1] is on record?
Its GI50 is 0.356 µM (active).

What about the GI50 [2] of the same molecule?
Its GI50 is 0.65 µM (active).

And the GI50 [3]?
The GI50 was 0.237 µM (active).

What about the GI50 [4] of the same molecule?
Its GI50 is 0.0426 µM (active).

What about the GI50 [5] of the same molecule?
Its GI50 is 0.2 µM (active).

And the GI50 [6]?
Its GI50 is 1.65 µM (inactive).

And the GI50 [20]?
Its GI50 is 0.147 µM (active).

And the GI50 [7]?
The GI50 was 0.197 µM (active).

And the GI50 [8]?
The GI50 was 0.0541 µM (active).

And the GI50 [9]?
The GI50 was 0.19 µM (active).

And the GI50 [10]?
Its GI50 is 1.89 µM (inactive).

What about the GI50 [12] of the same molecule?
Its GI50 is 0.156 µM.

What about the GI50 [13] of the same molecule?
Its GI50 is 0.277 µM (active).

And the GI50 [14]?
Its GI50 is 0.177 µM (active).

What about the GI50 [15] of the same molecule?
Its GI50 is 0.248 µM (active).

And the GI50 [16]?
Its GI50 is 1.84 µM (inactive).

And the GI50 [17]?
Its GI50 is 0.309 µM (active).

What about the GI50 [18] of the same molecule?
The GI50 was 0.181 µM (active).

What about the GI50 [19] of the same molecule?
Its GI50 is 0.0935 µM (active).

Which GI50 [1] does the source give for `COC(=O)/C=C(\C(=O)OC)C1C(=O)Oc2c(C)c(=O)c3ccccc3n21` (stereo not given) here?
The GI50 was > 100 µM (inactive).

What about the GI50 [2] of the same molecule?
Its GI50 is > 100 µM (inactive).

And the GI50 [3]?
Its GI50 is > 100 µM (inactive).

What about the GI50 [4] of the same molecule?
Its GI50 is > 100 µM (inactive).

What about the GI50 [5] of the same molecule?
The GI50 was > 100 µM (inactive).

And the GI50 [6]?
Its GI50 is > 100 µM (inactive).

And the GI50 [20]?
Its GI50 is > 100 µM (inactive).

What about the GI50 [7] of the same molecule?
Its GI50 is > 100 µM (inactive).

What about the GI50 [8] of the same molecule?
Its GI50 is > 100 µM (inactive).

And the GI50 [10]?
The GI50 was > 100 µM (inactive).

And the GI50 [11]?
The GI50 was > 100 µM (inactive).

What about the GI50 [12] of the same molecule?
Its GI50 is > 100 µM.

And the GI50 [13]?
Its GI50 is > 100 µM (inactive).

And the GI50 [14]?
Its GI50 is > 100 µM (inactive).

And the GI50 [15]?
The GI50 was > 100 µM (inactive).

What about the GI50 [16] of the same molecule?
Its GI50 is > 100 µM (inactive).

What about the GI50 [17] of the same molecule?
Its GI50 is > 100 µM (inactive).

What about the GI50 [18] of the same molecule?
The GI50 was > 100 µM (inactive).

What about the GI50 [19] of the same molecule?
Its GI50 is > 100 µM (inactive).

Which GI50 [1] does the source give for `C=CCc1cccc2cc(C(=O)Nc3ccccn3)c(=N)oc12` here?
Its GI50 is > 100 µM (inactive).

What about the GI50 [2] of the same molecule?
Its GI50 is > 100 µM (inactive).

What about the GI50 [3] of the same molecule?
Its GI50 is > 100 µM (inactive).

What about the GI50 [4] of the same molecule?
Its GI50 is > 100 µM (inactive).

What about the GI50 [5] of the same molecule?
Its GI50 is > 100 µM (inactive).

What about the GI50 [6] of the same molecule?
Its GI50 is > 100 µM (inactive).

What about the GI50 [9] of the same molecule?
Its GI50 is > 100 µM (inactive).

And the GI50 [10]?
Its GI50 is > 100 µM (inactive).

What about the GI50 [11] of the same molecule?
The GI50 was > 100 µM (inactive).

And the GI50 [12]?
The GI50 was > 100 µM.

And the GI50 [13]?
The GI50 was > 100 µM (inactive).

And the GI50 [14]?
The GI50 was > 100 µM (inactive).

And the GI50 [15]?
The GI50 was > 100 µM (inactive).

And the GI50 [16]?
The GI50 was > 100 µM (inactive).

And the GI50 [17]?
Its GI50 is 55.5 µM (inactive).

And the GI50 [18]?
The GI50 was > 100 µM (inactive).

What about the GI50 [19] of the same molecule?
The GI50 was > 100 µM (inactive).

For `O=C1OC(c2ccccc2)=NC1c1ccccc1` (stereo not given), which GI50 [1] is on record?
Its GI50 is > 100 µM (inactive).

What about the GI50 [2] of the same molecule?
The GI50 was > 100 µM (inactive).

And the GI50 [3]?
The GI50 was > 100 µM (inactive).

What about the GI50 [4] of the same molecule?
Its GI50 is > 100 µM (inactive).

What about the GI50 [5] of the same molecule?
Its GI50 is > 100 µM (inactive).

And the GI50 [6]?
Its GI50 is > 100 µM (inactive).

What about the GI50 [20] of the same molecule?
The GI50 was > 100 µM (inactive).

What about the GI50 [7] of the same molecule?
Its GI50 is > 100 µM (inactive).

And the GI50 [8]?
The GI50 was > 100 µM (inactive).

And the GI50 [9]?
The GI50 was > 100 µM (inactive).

And the GI50 [10]?
The GI50 was > 100 µM (inactive).

And the GI50 [11]?
The GI50 was > 100 µM (inactive).

What about the GI50 [12] of the same molecule?
Its GI50 is > 100 µM.

What about the GI50 [13] of the same molecule?
Its GI50 is > 100 µM (inactive).

What about the GI50 [14] of the same molecule?
The GI50 was > 100 µM (inactive).

And the GI50 [15]?
Its GI50 is > 100 µM (inactive).

And the GI50 [16]?
The GI50 was > 100 µM (inactive).

What about the GI50 [17] of the same molecule?
The GI50 was > 100 µM (inactive).

And the GI50 [18]?
Its GI50 is > 100 µM (inactive).

Which results are given for `COc1ccc2c(CC(=O)O)cc(=O)oc2c1`?
GI50 [1]: > 100 µM (inactive); GI50 [2]: > 100 µM (inactive); GI50 [3]: > 100 µM (inactive); GI50 [4]: > 100 µM (inactive); GI50 [5]: > 100 µM (inactive); GI50 [6]: > 100 µM (inactive); GI50 [20]: > 100 µM (inactive); GI50 [7]: > 100 µM (inactive); GI50 [8]: > 100 µM (inactive); GI50 [9]: > 100 µM (inactive); GI50 [10]: > 100 µM (inactive); GI50 [11]: > 100 µM (inactive); GI50 [12]: > 100 µM; GI50 [13]: > 100 µM (inactive); GI50 [14]: > 100 µM (inactive); GI50 [15]: > 100 µM (inactive); GI50 [16]: > 100 µM (inactive); GI50 [17]: > 100 µM (inactive); GI50 [18]: > 100 µM (inactive)

Which GI50 [1] does the source give for `C/C(=N\NC(=O)c1ccccc1O)c1cccc(/C(C)=N/NC(=O)c2ccccc2O)n1` here?
The GI50 was 0.955 µM (active).

What about the GI50 [2] of the same molecule?
The GI50 was 8.61 µM (inactive).

And the GI50 [3]?
Its GI50 is 19.4 µM (inactive).

And the GI50 [4]?
The GI50 was 6.97 µM (inactive).

What about the GI50 [5] of the same molecule?
The GI50 was 27.6 µM (inactive).

And the GI50 [7]?
The GI50 was 13.8 µM (inactive).

And the GI50 [8]?
The GI50 was 12.5 µM (inactive).

What about the GI50 [10] of the same molecule?
Its GI50 is 1.89 µM (inactive).

What about the GI50 [11] of the same molecule?
The GI50 was 5.05 µM (inactive).

What about the GI50 [12] of the same molecule?
The GI50 was 7.55 µM.

And the GI50 [13]?
Its GI50 is 15 µM (inactive).

And the GI50 [17]?
The GI50 was 4.24 µM (inactive).

What about the GI50 [18] of the same molecule?
The GI50 was 9.23 µM (inactive).

And the GI50 [19]?
The GI50 was 10.2 µM (inactive).
